Data set [1] concerns Neuro-2a cells. In words: Neuro-2a cells treated with compound alone in the culture media. The data set is classed as cell-based, murine. The settings on record: compound alone in the culture media (data not shown). From the text:
Specifically, a significant reduction in cell death, to less than 15% and 25%, respectively, was observed.

The test system of data set [2] is TNF-α protein production in BV-2 cells. In words: LPS-induced TNF-α protein production in BV-2 cells, ELISA. Format: cell-based, murine. The settings on record: 100 ng/ml LPS, 18 hours. How it is done: To measure the TNF-α level in cell culture supernatants, BV-2 cells were seeded at 1×10^5 cells/ml in the volume of 0.5 ml in 24-well culture plates. They were co-treated with or without 100 ng/ml LPS in the absence or presence of indicated concentrations of bioactive compounds of LCX for 18 h. In addition, PBMac cells were seeded at 1×10^6 cells/ml in the volume of 0.5 ml in 24-well plates. After incubation, the supernatants were collected and TNF-α levels were determined by ELISA according to the manufacturer's instructions (R&D Systems).
The role of senkyunolide A (Sen A) and Z-ligustilide (Z-Lig) in suppressing TNF-α production is further evaluated in this Example. Briefly, 5×10^4 cells/ml BV-2 cells are seeded in 24-well plates (0.5 ml in each well). Cells are treated with 0.05% DMSO; 0.05% DMSO and 100 ng/ml LPS; 50 μg/ml Sen A/Z-Lig; or 100 ng/ml LPS and Sen A/Z-Lig at a concentration of 1 μg/ml, 5 μg/ml, 10 μg/ml, 25 μg/ml, and 50 μg/ml for 18 hours, respectively. The culture supernatant is collected and the level of secreted TNF-α is measured by ELISA.

Data set [3] deals with Neuro-2a cells. The data set can be described thus: Conditioned culture medium transfer model (LPS-treated BV-2 supernatant on Neuro-2a), MTT assay. The data set is classed as cell-based, murine. The settings on record: supernatant of BV-2 cells treated with 100 ng/ml LPS and 50 μg/ml compound 18 h, on Neuro-2a 48 h; LPS only more than 40%. How it is done:
BV-2 cells (3×10^5 cells/ml) were first treated with 100 ng/ml LPS for 18 h, in the presence of either 0.05% DMSO or 50 μg/ml senkyunolide A or Z-ligustilide. After centrifugation, the supernatants from BV-2 cells were transferred to Neuro-2a cells ([…]) for 48 h. Viability of Neuro-2a cells was measured using MTT assays. Results are shown as mean SD from three independent experiments. *p<0.05 compared with DMSO+LPS.
BV-2 cells were seeded at 3×10^5 cells/ml in 12-well culture plates (1 ml in each well). They were co-treated with or without 100 ng/ml LPS, in the presence of 0.05% DMSO, 50 μg/ml senkyunolide A, or 50 μg/ml Z-ligustilide, for 18 h. The supernatants were then collected and centrifuged at 13,200 rpm for 3 min. The resulting supernatants were then transferred to Neuro-2a cells (1×10^5 cells/ml in 24-well culture plates), which were incubated for another 48 h. Cell viability of Neuro-2a cells was measured by MTT assay.
Briefly, to investigate the physiological significance of Sen A and Z-Lig, a conditioned culture medium transfer model, commonly used for studying neuronal cell death induced by microglial activation, was adopted. After BV-2 cells were challenged with LPS, the supernatants were collected and centrifuged. The conditioned culture media were then transferred to Neuro-2a cell cultures.
(In general: Tetrazolium dyes change colour on reduction, which living cells bring about.)

In data set [4] the test system is nitrite production in BV-2 cells. The data set can be described thus: LPS-induced nitrite (nitric oxide) production in BV-2 cells, Griess reagent. Format: cell-based, murine. The settings on record: 100 ng/ml LPS, 1-50 μg/ml, 18 hours. How it is done: Nitrite levels in the culture media were determined using Griess reagent under manufacturer's instructions (Sigma Aldrich, St. Louis, Mo.). Fresh culture media were used as blanks and the nitrite levels were determined by using a standard sodium nitrite curve.
The effect of each extract on nitric oxide production is evaluated according to the procedures illustrated as follows. Briefly, murine microglia cell line BV-2 is maintained in Dulbecco's modified Eagle's minimum essential medium (DMEM) supplemented with 10% FBS and 1% penicillin and streptomycin (Invitrogen Life Technologies, Carlsbad, Calif.) at 37° C. in a humidified atmosphere with 5% CO2 in warm air.
0.1 M cells/ml BV-2 cells are seeded in 24-well plates (0.5 ml in each well). Cells are treated with 0.05% DMSO; 0.05% DMSO and 100 ng/ml LPS; or 100 ng/ml LPS and 50 μg/ml of an LCX extract for 18 hours, respectively. The culture supernatant is collected. The nitric oxide level is measured using the Griess reagent according to standard manufacturer's instructions (Sigma Aldrich, St. Louis, Mo.), and assessed using the standard sodium nitrite curve.
The effect of senkyunolide A (Sen A) and Z-ligustilide (Z-Lig) at various concentrations on LPS-induced nitrite production is further evaluated in this Example. Briefly, 0.1 M cells/ml BV-2 cells are seeded in 24-well plates (0.5 ml in each well). Cells are treated with 0.05% DMSO; 0.05% DMSO and 100 ng/ml LPS; 50 μg/ml Sen A/Z-Lig; or 100 ng/ml LPS and Sen A/Z-Lig at a concentration of 1 μg/ml, 5 μg/ml, 10 μg/ml, 25 μg/ml, and 50 μg/ml for 18 hours, respectively. The culture supernatant is collected. The nitric oxide level is measured using the Griess reagent according to standard manufacturer's instructions (Sigma Aldrich, St. Louis, Mo.), and evaluated using the standard sodium nitrite curve.

The test system of data set [5] is TNF-α production in human blood macrophages. In words: LPS-induced TNF-α production in human blood macrophages (PBMac), ELISA. Format: cell-based. To be noted: 25 or 50 μg/ml for 24 hours, then 1 ng/ml LPS for 24 hours. How it is done:
To measure the TNF-α level in cell culture supernatants, BV-2 cells were seeded at 1×10^5 cells/ml in the volume of 0.5 ml in 24-well culture plates. They were co-treated with or without 100 ng/ml LPS in the absence or presence of indicated concentrations of bioactive compounds of LCX for 18 h. In addition, PBMac cells were seeded at 1×10^6 cells/ml in the volume of 0.5 ml in 24-well plates. After incubation, the supernatants were collected and TNF-α levels were determined by ELISA according to the manufacturer's instructions (R&D Systems). […] To study the effect of Sen A and Z-Lig at various concentrations on TNF-α production, 1×10^6 cells/ml (FIG. 6) PBMac cells are seeded in 24-well plates (0.5 ml in each well). Cells are treated with 25 μg/ml or 50 μg/ml Sen A, Z-Lig, or DMSO for 24 hours prior to the addition of 1 ng/ml LPS, and further incubated for another 24 hours. The culture supernatants are collected and the level of secreted TNF-α is measured by ELISA according to the manufacturer's instructions (R&D Systems, Minneapolis, Minn.).
On the technique in general: ELISA stands for enzyme-linked immunosorbent assay.

Values joined by “and” are separate entries in the source; they are usually repeats but may differ in a detail not shown here. Equal entries are not always repeated.

As to `CCC/C=C1\OC(=O)C2=C1CCC=C2` [Z-ligustilide], the “cell death with compound alone” value with Neuro-2a cells [1] is recorded as “did not show cell death”. In addition, the “effect on TNF-α production over concentrations” value in data set [2] (1-50 μg/ml) is recorded as “inhibits TNF-α production in a dose-dependent manner”. For the same molecule, the “concentration that significantly inhibits TNF-α production” value in data set [2] was 10 µg/mL and > 10 µg/mL. For the same molecule, the “cell death of Neuro-2a cells” value in the data set with Neuro-2a cells [3] is listed as below 25%. Also, the “effect on nitrite production over concentrations” value in data set [4] is listed as “inhibits nitrite production in a dose-dependent manner”. The “effect on endotoxin-induced TNF-α production” value in data set [5] is “suppress endotoxin-induced TNF-α production in a dose-dependent manner”.

Source of the values: patent US9655877B2, “Therapeutic methods for treating inflammation and immune system disorders” (priority 2009, dated 2017).
